Test results published in patent publication US7361735B2, “LITAF binding site peptides and methods of using the same” (Trustees of Boston University, priority 2003, dated 2008).

Tests used:
THP-1 cells = assay: ELISA of hTNF-α after Chariot delivery of peptide; format: cell-based, human; conditions: PMA-matured THP-1; Chariot/peptide 1, 10, 100 ng/ml or 1 μg/ml; 24 hours; ELISA of supernatant
Description: FIG. 5 is a graphical representation of the production of TNF-α in THP-1 cells after transfection of peptide A, B, C, or HA with Chariot as described herein. The concentration of active of TNF-α was induced by various concentrations of peptide and measured by duplicate ELISA tests at the same condition and graphed.
THP-1 cells were induced to maturation by addition of […] (Sigma) and incubated at 37° C., 5% CO2 for 20 hrs, then washed with PBS twice, and stimulated (delivered) with Chariot/peptide complex of various concentrations of either peptide A or B or C or HA in a 96-well plate at 2×10^4 cells/well as indicated in the text. After 24 hrs of incubation at 37° C., 5% CO2, culture supernatants were harvested, centrifuged at 1,500×g to remove cell debris, then TNF-α was measured by ELISA (ABRAXIS, Hatboro, Pa.) and quantified on a Model 680 Microplate Reader (BioRad).
Therefore, peptides A, B, and C, were synthesized based on the amino acid sequence of hLITAF. […] After pretreatment with PMA, peptides A, B, C, or HA were introduced into THP-1 cells using Chariot, as described herein, in concentrations of 1, 10, 100 ng/ml or 1 μg/ml. After 24 hours, culture supernatants were harvested and TNF-α was quantified by ELISA. […] In contrast, peptide B increased TNF-α secretion by as much as 2.4 fold over unstimulated levels.

wtTNFP (−991 to 1) = assay: Luciferase reporter assay, wild type full-length TNF-α promoter, THP-1; format: cell-based, human; conditions: 1 μg/ml peptide via Chariot or 100 ng/ml LPS, normalized by β-gal, peptide B compared with HA-stimulated cells
Description: (§1) FIGS. 6a and 6b are graphical representations of the transcriptional activity of a series of deletion constructs of TNF-α promoter DNA. FIG. 6a depicts the activity measured due to either the promoter wtTNFβ (−991 to 1) or mtTNFβ1 (−991 to 1Δ−515 to −511). pGL3-basic transfected cell as unstimulated control was used. After transfection of DNAs for 3 hrs, the cells were washed with PBS twice, and stimulated with 100 ng/ml LPS (E. coli) or transfected with Chariot/peptide complex of 1 μg/ml of either peptide A, B, C, or HA. Triplicate assays were performed. Values are normalized by β-gal production and graphed. FIG. 6b depicts the activity measured due to the promoter mtTNFβ2 (−550 to −487 plus TATA box) or mtTNFβ3 (−550 to −487Δ−515 to −511 plus TATA box). LPS or peptides as stimuli and controls were used at the same condition as described above.
(§2) The following series of hTNF-α promoter DNA fragments were subcloned (FIG. 1b) into the pGL3-Basic vector, which has a promoterless and enhancerless luciferase reporter gene, available from Pharmacia: 1. wtTNFP (−991 to 1) was generated by PCR with primer pairs: 5′-[…]-3′ (SEQ ID NO: 20′) and 5′-[…]-3′(SEQ ID NO: 21′). 2. mtTNFP1 (−991 to 1Δ−515 to −511). The first in-frame mutant hTNF-α promoter was generated by PCR with primer pairs, 5′-[…]-3′(SEQ ID NO: 20) and 5′-[…] (SEQ ID NO: 22). The second mutant DNA was generated by PCR with primer pairs, 5′-[…]-3′ (SEQ ID NO: 23) and 5′-[…]-3′ (SEQ ID NO: 21). Both first and second DNA fragments above were purified and diluted as template to 1 ng/reaction and finally amplified by PCR with primer pairs, 5′-[…]-3′ (SEQ ID NO: 20) and 5′-[…]-3′ (SEQ ID NO: 21). […]
(§3) THP-1 cells (5×10^6/well) were induced to maturation by addition of […] (Sigma) and incubated at 37° C., 5% CO2 for 20 hrs, washed with PBS twice, co-transfected with 1 μg DNAs by using Fugene 6 (Roche Molecular Biochemicals) for 3 hrs, washed with PBS, then individually transfected with Chariot/peptide complex of 1 μg/ml peptide A, B, C or HA or stimulated with 100 ng/ml LPS (E. coli) for 3 hrs, washed with PBS, incubated at 37° C., 5% CO2, overnight. […] Luciferase activity in the lysates was measured using a commercial kit (Luciferase Reporter Assay System, Promega) and normalized by β-gal assay in the same lysates as described (McClane et al., Hum. Gene Ther. 10:739-746, 1997).
(§4) To determine whether the short sequence CTCCC (−515 to −511) in the hTNF-a promoter is responsible for hLITAF binding activity, a series of hTNF-α promoter/reporter constructs were cloned (see FIG. 1b) and individually transiently transfected into THP-1 cells. […] TNF-α promoter activity was subsequently analyzed using the luciferase assay. […]

[1] = test system: mtTNFP1 (−991 to 1Δ−515 to −511); assay: Luciferase reporter assay, full-length TNF-α promoter lacking CTCCC, THP-1; format: cell-based, human; conditions: 1 μg/ml peptide via Chariot or 100 ng/ml LPS, FIG. 6a
Description: as §1, §2, §3, §4

[2] = test system: mtTNFP2 (−550 to −487 plus TATA Box); assay: Luciferase reporter assay, short TNF-α promoter fragment with LITAF binding site, THP-1; format: cell-based, human; conditions: 1 μg/ml peptide via Chariot or 100 ng/ml LPS, in comparison with the HA control, FIG. 6b
Description: as §1, §2, §3, §4

[3] = test system: mtTNFP3 (−550 to −487Δ−515 to −511 plus TATA Box); assay: Luciferase reporter assay, short TNF-α promoter fragment lacking LITAF binding site, THP-1; format: cell-based, human; conditions: 100 ng/ml LPS, FIG. 6b
Description: as §1, with “above. […]” for “above.”
as §4

[4] = test system: COS-7 cells (wild-type p53); assay: Western blot of p53 accumulation after LPS; format: cell-based; conditions: LPS 500 ng/ml for 4 hrs
Description: (§5) FIGS. 7a and 7b show the analysis of the accumulation of p53 and induction of LITAF mRNA. […] 60 μg of crude cell lysate was loaded per lane and separated on an 8% SDS-PAGE, which were then transferred to Immobilon-P. The protein blots were probed individually with monoclonal antibodies specific for p53 (DO-1, Santa cruz) or with goat polyclonal antibodies for actin (C-11, Santa cruz). p53 proteins were expressed well in lanes 2 through 4. […] Cells were incubated with 100 or 500 ng/ml of LPS for 4 or 24 hrs. Total cellular RNA was purified by using the Oligotex mRNA Kit (Qiagen). mRNA was size-fractionated on a denaturing formaldehyde-agarose gel (1.1%) and transferred onto a Hybond-N^+ membrane (Amersham). These filters were hybridized with an γ-^32P ATP-labeled DNA probe and then autoradiographed with BIOMAX MR film (Kodak).
(§6) The accumulation of p53 after LPS stimulation was investigated.

[5] = test system: COS-7 cells (wild-type p53); assay: Northern blot of LITAF transcript after LPS, COS-7; format: cell-based; conditions: LPS 500 ng/ml for 4 hrs
Description: as §5, §6

[6] = test system: WTK-1 cells (p53-deficient cell line); assay: Northern blot of LITAF transcript after LPS, WTK-1; format: cell-based; conditions: WTK-1 p53-deficient cells
Description: as §5, §6

COS-7 cells = assay: TUNEL analysis of DNA fragmentation of apoptotic cells; format: cell-based
Description: FIG. 8 depicts the TUNEL analysis of DNA fragmentation of apoptotic COS-7 cells in response to LPS. After LPS stimulation, cells were fixed in 4% methanol-free formaldehyde solution for 30 min at room temperature, then permeated with 0.1% Triton X-100 for 2 min at 4° C. After washing with PBS, the samples were stained according to the manufacturer's recommended protocol for TUNEL (Promega.). The fragmentation of apoptotic COS-7 cell nuclei was analyzed by fluorescence microscopy (panels g, f, or h). The corresponding field was also observed by standard phase contrast microscopy (panels a, b, or c).
Since the induction of LITAF follows the accumulation of p53 (FIG. 7a), the DNA fragmentation of apoptotic COS-7 cells after 4 hrs with LPS stimulation was investigated.

[7] = test system: wtTNFβ, TNF-α promoter from −991 to 1; assay: Luciferase reporter assay, wild-type TNF-α promoter, WTK-1; format: cell-based; conditions: WTK-1 cells; normalized to β-gal; LITAF overexpressed alone without LPS stimulation
Text: (§7) FIG. 10 is a graphical representation of the analysis of LITAF function in luciferase reporter constructs. The series of TNF-α promoter DNA fragments were subcloned into the pGL3 basic vector (Pharmacia), a promoterless and enhancerless luciferase reporter gene. One construct, named wtTNFβ, contained TNF-α promoter from −991 to 1. Another one, mtTNFβ1, was a mutant inserted with the promoter from −991 to 1, but lacking the LITAF binding site. WTK-1 cells (grown to 85% confluence) in a 6-well plate at 1.2×10^5 cells/well were co-transfected with 1 μg DNAs including pCMV-LITAF recombinant vector, pVMVβ-gal and pGL3 basic as control by Fugene 6 (Roche Molecular Biochemicals) for 3 hrs, washed with PBS twice, then individually stimulated with LPS or Chariot/peptide complex of 100 ng/ml peptide B (peptide fragment of LITAF representing aa 152-228) or HA as control for 3 hrs, washed with PBS, incubated at 37° C., 5% CO2, o/n. The β-galactosidase gene was included in all transfections. The cells were harvested and lysed approximately 12 hrs after transfection. The promoter activity from each lysate sample was measured using the luciferase reporter assay system (Promega) and normalized to β-gal expression in the same sample, as described in the methods section below.
(§8) The activation of TNF-α gene expression by LITAF was investigated. […]

[8] = test system: mtTNFβ1, promoter from −991 to 1 lacking the LITAF binding site; assay: Luciferase reporter assay, mutant TNF-α promoter lacking LITAF binding site, WTK-1; format: cell-based; conditions: WTK-1 cells; LPS stimulation
Text: as §7, §8

With “SYYTQPAPIPNNNPIT VQTVY (SYYTQPAPIPNNNPITVQTVY) [peptide A]” the “TNF-α secretion over unstimulated levels” value (THP-1 cells) was “did not induce any significant TNF-α secretion”, the “hTNF-α promoter activity (luciferase expression), wild type promoter” value (“hTNF-α promoter activity” for short) (wtTNFP (−991 to 1)) was “did not result in any significant increase” and the “promoter activity (luciferase), mutant TNF-α promoter lacking the CTCCC motif” value [1] was “no appreciable induction”. For the same substance, the “expression of luciferase, shorter reporter plasmid containing the LITAF binding site” value (“expression of luciferase” below) [2] was “unable to activate”.

For LSSSFTPGGGSALVVS [peptide C], the “TNF-α secretion over unstimulated levels” value (THP-1 cells) was “did not induce any significant TNF-α secretion”, the “hTNF-α promoter activity” value (wtTNFP (−991 to 1)) was “did not result in any significant increase” and the “promoter activity (luciferase), mutant TNF-α promoter lacking the CTCCC motif” value [1] was “no appreciable induction”. The “expression of luciferase” value [2] was “unable to activate”.

In the case of Lipopolysaccharide [LPS], the “hTNF-α promoter activity” value (wtTNFP (−991 to 1)) is reported as “similarly activated”, the “promoter activity (luciferase), mutant TNF-α promoter lacking the CTCCC motif” value [1] is reported as “similarly activated” and the “expression of luciferase” value [2] is reported as “strongly dependent on the presence of the LITAF binding site”. The “activation of shorter reporter plasmid lacking the LITAF binding site” value [3] was “activation not observed”, the “inducible p53 protein” value [4] was “detected” and the LITAF transcript [5] was “detected”. The LITAF transcription [6] was “did not induce LITAF transcription”, the “apoptosis (TUNEL)” value (COS-7 cells; 100 ng/ml of LPS) was “did not induce apoptosis” and the “TUNEL-positive (apoptotic) cells” value (COS-7 cells; 500 ng/ml LPS for at least 4 hrs) was “significantly increased”. The “TNF-α promoter activity (luciferase), wild-type promoter/reporter plasmid” value [7] was “similarly activated” and the “TNF-α promoter activity (luciferase), mutant promoter/reporter plasmid” value [8] was “similarly activated”.

With YPYDVPDYASL [HA, reference compound] the “TNF-α secretion over unstimulated levels” value (THP-1 cells) was “did not induce any significant TNF-α secretion”.

In the case of SQTWREPGAAGSPFHL [peptide B], the “TNF-α secretion over unstimulated levels” value (THP-1 cells) is reported as no more than 2.4 fold, the “hTNF-α promoter activity” value (wtTNFP (−991 to 1)) is reported as roughly 2 fold and the “promoter activity (luciferase), mutant TNF-α promoter lacking the CTCCC motif” value [1] is reported as “no appreciable induction”. The “expression of luciferase” value [2] was 2.3 fold.
